In US20240299591A1, “Antimicrobial Peptides and Their Use” (priority 2021, published 2024):
Entries after “also recorded” stand apart in the source; their conditions may differ. Where a SMILES comes first, the peptide text is derived from it. [ ]: non-standard residue; d: D form. The star is where a group is joined. X1 = CN1/C(=C/C=C(/C=C/C2=[N+](C)c3ccccc3C2(C)C)c2ccc(C(=O)*)cn2)C(C)(C)c2ccccc21

Key:
Aspergillus species = settings: cited from earlier work
Fusarium species = settings: clinical isolates (Arikan et al., 2001); cited from earlier work
Aspergillus fumigatus [1] = assay type: cell-based; settings: Conidia (RPMI), 37° C., 24 h
rabbit eye = experiment: Tolerability study on rabbit eyes in vivo; settings: 10 µM, 50 µL into the right eye, three rabbits, observed 7 days
Experimental: Three rabbits (rabbits 1, 2 and 3) were tested. All rabbits appeared unaffected immediately post-treatment and through the next 7 days with no signs of irritation and no change in general condition. MFIGAF001a was used at 10 µM and 50 µL and was admitted into the right eye of the rabbits.

S. aureus = experiment: Live cell imaging with S. aureus; assay type: cell-based, Staphylococcus aureus; settings: 2.5 µM, 20 min incubation at 37° C. in RPMI
Source text: MFIGAF001a labels gram positive bacteria Staphylococcus aureus. (FIG. 14).

[2] = Viability of reconstructed cornea-like epithelium (eye irritation model); assay type: cell-based; settings: human, reconstructed cornea-like epithelium (RhCE, EpiOcular™); 10 μM; read-out: Mean of Viabilities (%)
Experimental: (§1) FIG. 4a is a graph of the viability reconstructed cornea-like epithelium (RhCE, EpiOcular™) after incubation with MFIGA001. NC=Negative Control; PC=Positive Control. FIG. 4b is a graph of the viability reconstructed cornea-like epithelium (RhCE, EpiOcular™) after incubation with 10 µM of MFIGA001a and MFIGAF001b. NC=Negative Control; PC=Positive Control; A2=MFIGAF001a; and B1=MFIGAF001b.
(§2) MFIGAF001 was also assessed independently by a CRO (Evotec) in an OECD compliant reconstructed cornea-like epithelial cell model (RhCE, EpiOcular™).

[3] = system: reconstructed cornea-like epithelium (RhCE, EpiOcular™); experiment: as above; assay type: cell-based; settings: RhCE, EpiOcular™
Experimental: as §1, §2

A. fumigatus [4] = experiment: Live cell imaging of A. fumigatus in co-cultures with A549; assay type: cell-based, Aspergillus fumigatus; settings: 2.5 µM, 10 min after addition, 37° C. in RPMI
[5] = system: Human Red Blood Cells (HRBCs); experiment: Haemolytic activity in human red blood cells; settings: 10 μM, 37° C., 1 h
Experimental: Molecules, DMSO (as positive control) and PBS (as negative control) were incubated with human RBCs at 37° C. and their viability was assessed after 1 h.
Erythrocytes were isolated from freshly drawn, anticoagulated human blood and diluted in PBS (1:5). An amount of 50 μl of erythrocyte suspension was added to 50 μl of compounds at 10 µM. DMSO was used as positive control and PBS as negative control. The plate was incubated at 37° C. for 1 h, each well was diluted with 150 μl of PBS and the plate was centrifuged at 1,200 g for 15 min. A total of 100 μl of the supernatant from each well was transferred to a fresh plate, and the absorbance at 350 nm was measured in a microplate reader. Data is represented as % of cell viability as means from three independent experiments with n=3.

Fusarium oxysporum = assay type: cell-based; settings: Conidia (10% Vogel's), 35° C., 24 h
Experimental: Dose dependent inhibition of fungal growth by all non-labelled peptides (indicated by IC50 values) was determined via this methodology. The assays were performed using Nunc 262162 U96 polystyrene round bottomed clear plates (www.nuncbrand.com).
(§3) When testing the peptides against A. fumigatus, peptides at different concentrations were mixed with A. fumigatus conidia to reach a final volume of 100 μL per well. The final conidial concentration was 5×10^5 cells/mL in 10% Vogel's medium. After 24 h of incubation at 37° C. in 96 well plates, fungal growth with the different peptide concentrations was determined by measurement of the optical density at 610 nm in a TriStar LB 941 Multimode Microplate Reader. The IC50 values were determined using four parameter logistic regression formula provided by Sigma Plot 10.0. Values are represented as means±SEM from two independent experiments (n=3).
When testing the peptides against N. crassa and F. oxysporum, experiments were carried as described above apart from the incubation temperature was changed to 25° C. for N. crassa and 35° C. for F. oxysporum.
(§4) The IC50 of the fluorescently labelled peptides cannot be accurately determined using the optical density method described in the last section. This is because the fluorophore structures absorbed light at 610 nm which was the wavelength used for the optical density measurements. In order to overcome this, the BacTiter-Glo™ Microbial Cell Viability Assay kit purchased from Promega was used. The BacTiter-Glo™ Reagent relies on the properties of a proprietary thermostable luciferase (Ultra-Glo™ Recombinant Luciferase) and a proprietary formulation for extracting ATP from fungal cells which will generates a ‘glow-type’ luminescent signal. This is produced by the luciferase reaction shown in Scheme 1, which has a signal half-life of over 30 min depending on the experimental conditions. The luminescent signal is proportional to the amount of ATP present, which is directly proportional to the number of living cells in culture.
(§5) The IC50 assays for all fluorescently labelled peptides were performed using Greiner CELLSTAR white polystyrene wells flat bottomed 96 well plates. The incubation conditions remained the same for the optical density measurement described in the previous section. Once the incubation procedure was finished, the plate was equilibrated to room temperature. A mixture of BacTiter-Glo™ buffer and substrate was then added to the plate (100 μL per well). The plate was shaken for 5 min and read using the Tristar […] luminometer. Data analysis was performed using Sigma Plot 10.0. All values shown are presented as means±SEM from two independent experiments (n=3).

[6] = system: C. albicans, F. oxysporum, A. fumigatus, and C. neoformans; experiment: Live cell imaging, fluorescent labelling of pathogenic fungi; assay type: cell-based; set-up: dose or concentration left out as unconfirmed; settings: 15 min incubation at 37° C. in RPMI
Experimental: The N. crassa mat A WT used for confocal live-cell imaging was grown on 100% Vogel's agar medium at 25° C. for 3-5 days before the spores were harvested. The A. fumigatus CEA10 strain used for confocal live-cell imaging was grown on 100% Vogel's medium at 37° C. for 4-5 days before the spores were harvested. Before the confocal experiments were performed, N. crassa spores were incubated in eight-well slide culture chambers for 3 h at 25° C. in liquid 10% Vogel's medium and A. fumigatus spores were incubated for 16 h at 25° C. in liquid 10% Vogel's medium in order to allow germination to fully take place for imaging.
Live-cell imaging of germinated fungi spores was performed using a Leica TCS SP8 confocal laser scanning microscope equipped with photo multiplier tubes (PMT), hybrid GaAsP (HyD) detectors and a 63× water immersion objective. A Leica turntable white light laser (WLL, 450-750 nm), argon laser (458 nm, 476 nm, 488 nm and 496 nm) and UV laser (405 nm) were used for fluorescence excitation.
The major pathogenic fungi include C. albicans, F. oxysporum, A. fumigatus, and C. neoformans.

Aspergillus fumigatus [7] = assay type: cell-based; settings: Conidia (10% Vogel's), 37° C., 24 h
Experimental: The assays were performed using Nunc 262162 U96 polystyrene round bottomed clear plates (www.nuncbrand.com).
as §3, §4, §5

A. fumigatus [8] = experiment: Live cell imaging in pig corneal infection model; set-up: species or system Aspergillus fumigatus; dose or concentration left out as unconfirmed; settings: 15 min incubation at 37° C.
Experimental: MFIGAF001a in a pig corneal infection model was investigated (FIG. 12).
Porcine corneal was infected with A. fumigatus using the same method described above (Biological Example 8). After confirming the success of infection, 1 drop of MFIGAF001 solution in water (2.5 μM) was added topically to the corneal surface and incubated for 15 min at 37° C. before confocal microscopy.

[9] = system: A. fumigatus and S. aureus; experiment: Live cell imaging in pig corneal infection model co-infected by A. fumigatus and S. aureus; settings: 2.5 μM, 15 min incubation at 37° C., co-infected 48 h
Source text: The labelled compound can be used to distinguish fungus from S. aureus when using confocal microscopy based on assessing the morphology of the areas of fluorescence. The fungal hyphea can be observed and identified based on its characteristic filamentous shape, and its much larger size compared to the bacteria which appears to be much smaller and having a dotted shape.

P. aeruginosa = experiment: Live cell imaging with P. aeruginosa; assay type: cell-based; settings: 2.5 μM, 37° C. in RPMI, 1 h

## CC[C@H](C)C[C@H](C)CCCCCCCCC(=O)N[C@H]1C[C@@H](O)[C@@H](NCCN)NC(=O)[C@@H]2[C@@H](O)CCN2C(=O)[C@H]([C@H](O)CCN)NC(=O)[C@H]([C@H](O)[C@@H](O)c2ccc(O)cc2)NC(=O)[C@@H]2C[C@@H](O)CN2C(=O)[C@H]([C@@H](C)O)NC1=O [Caspofungin]
Aspergillus species
  MICs against Aspergillus clinical isolates: moderate MICs
Fusarium species
  Activity against Fusarium species (MIC testing): not particularly active

## C[C@@H]1C/C=C/C=C/C=C/C=C/[C@H](O[C@@H]2O[C@H](C)[C@@H](O)[C@H](N)[C@@H]2O)C[C@@H]2O[C@](O)(C[C@@H](O)C[C@H]3O[C@@H]3/C=C/C(=O)O1)C[C@H](O)[C@H]2C(=O)O [Natamycin]
Aspergillus fumigatus [1]
  IC99 Aspergillus fumigatus: 39 mg/L

## CN1/C(=C/C=C(/C=C/C2=[N+](C)c3ccccc3C2(C)C)c2ccc(C(=O)NCCCC[C@@H]3NC(=O)[C@H](Cc4c[nH]c5ccccc45)NC(=O)[C@H](Cc4ccccc4)NC(=O)[C@H](Cc4c[nH]c5ccccc45)NC(=O)[C@@H](Cc4ccccc4)NC(=O)[C@H](CCCCN)NC(=O)[C@H](CCCCN)NC(=O)[C@H](CCCNC(=N)N)NC(=O)CNC3=O)cn2)C(C)(C)c2ccccc21 [MFIGAF001a, Cyclo(Arg-Lys-Lys-phe-Trp-Phe-Trp-Lys(Cy5)-Gly)] (cyclo(FWK(X1)GRKK[dF]W))
Rabbit eye
  Tolerability / eye irritation in rabbit eye: no eye irritation; also recorded: well tolerated
S. aureus
  Labelling of gram positive bacteria Staphylococcus aureus: labels
[2]
  viability at 10 µM: 98%
[3]
  Toxicity, reconstructed cornea-like epithelium (FIG. 4): no obvious toxicity
A. fumigatus [4]
  Selective labelling of A. fumigatus over A549: selectively labels A. fumigatus over A549 cell
[5]
  Haemolytic activity against HRBCs: no haemolytic activity
Fusarium oxysporum
  IC50 Fusarium oxysporum: 1.5 µg/mL
[6]
  Fluorescent labelling of pathogenic fungi: label all major pathogenic fungi that cause fungal keratitis; also recorded: rapid and highly fluorogenic labelling
Aspergillus fumigatus [7]
  IC50 Aspergillus fumigatus: 1.3 µg/mL
A. fumigatus [8]
  Selective labelling of A. fumigatus over porcine corneal tissue: selectively labelled A. fumigatus
[9]
  Differentiation of fungus from S. aureus by morphology of fluorescence: can be used to differentiate fungal keratitis and gram positive bacterial keratitis
P. aeruginosa
  Selectivity over gram negative bacteria Pseudomonas (labelling): great selectivity
